Experimental data published in patent publication US20230278972A1, “SUBSTITUTED HALOALKYL SULFONANILIDE HERBICIDES” (FMC Corporation, priority 2020, published 2023).

Experiments:
Format in all cases: in vivo
[1] = tested on: Foxtail, Giant (giant foxtail, Setaria faberi); assay: Test A1 preemergence, Foxtail, Giant
Outline: (§1)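 Both timings started from seed in a loam-sand blend. Preemergence pots got a directed soil application immediately; postemergence pots were sprayed when seedlings had one or two leaves and stood 2–10 cm. Each compound was prepared in a non-phytotoxic solvent plus surfactant.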

[2] = tested on: Oat, Wild (wild oat, Avena fatua); assay: Test A1 preemergence, Oat, Wild
Outline: as §1

[3] = tested on: ragweed (common ragweed, Ambrosia artemisiifolia); assay: Test A1 preemergence, ragweed
Outline: as §1

[4] = tested on: wheat (Triticum aestivum); assay: Test A1 postemergence, wheat; settings: for Wheat plant response rating: 31 g ai/ha, postemergence, 0 to 100 scale (0 no effect, 100 complete control); for Plant response rating, Wheat: Postemergence, 125 g ai/ha, 0 to 100 scale
Outline: (§2)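 Herbicidal response was scored on plants treated either preemergence, by directed spray onto soil of a loam–sand blend after sowing, or postemergence on potted plants at the one- to two-leaf stage, 2–10 cm high. Test chemicals were carried in a non-phytotoxic solvent mix with surfactant.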

[5] = tested on: Pigweed, Palmer (palmer amaranth, palmer pigweed, Amaranthus palmeri); assay: Test A1 postemergence, Pigweed, Palmer; settings: for Pigweed, Palmer plant response rating: 31 g ai/ha, postemergence, 0 to 100 scale (0 no effect, 100 complete control); for Plant response rating, Pigweed, Palmer: Postemergence, 125 g ai/ha, 0 to 100 scale
Outline: as §2

[6] = tested on: barnyardgrass (Echinochloa crus-galli); assay: Test B1 flooded paddy test, barnyardgrass; settings: 250 g ai/ha, Flood, applied to paddy water, 2-leaf stage, visually evaluated after 10 to 14 days
Excerpt: (§3) A dash (-) response means no test result.

[7] = tested on: Foxtail, Giant (giant foxtail, Setaria faberi); assay: Test A1 postemergence, Foxtail, Giant; settings: for Foxtail, Giant plant response rating: 31 g ai/ha, postemergence, 0 to 100 scale (0 no effect, 100 complete control); for Plant response rating, Foxtail, Giant: Postemergence, 125 g ai/ha, 0 to 100 scale
Outline: as §2

kochia (Bassia scoparia) = assay: Test A1 postemergence, kochia; settings: for Kochia plant response rating: 31 g ai/ha, postemergence, 0 to 100 scale (0 no effect, 100 complete control); for Plant response rating, Kochia: Postemergence, 125 g ai/ha, 0 to 100 scale
Outline: as §2

rice (Oryza sativa) = assay: Test B1 flooded paddy test, rice; settings: 250 g ai/ha, Flood, applied to paddy water, 2-leaf stage, visually evaluated after 10 to 14 days
Excerpt: as §3

[8] = 31 g ai/ha, 0 to 100 scale (0 no effect, 100 complete control)
[9] = 125 g ai/ha, 0 to 100 scale, 0 no effect, 100 complete control

| SMILES | Plant response rating, Foxtail, Giant [1, 8] | Plant response rating, Foxtail, Giant [1, 9] | Plant response rating, Oat, Wild [2, 8] | Plant response rating, Oat, Wild [2, 9] | Plant response rating, Ragweed [3, 8] | Plant response rating, Ragweed [3, 9] | Wheat plant response rating [4] | Plant response rating, Wheat [4] | Pigweed, Palmer plant response rating [5] | Plant response rating, Pigweed, Palmer [5] | Plant response rating, Barnyardgrass (0 to 100 scale, 0 is no effect, 100 is complete control) [6] | Foxtail, Giant plant response rating [7] | Plant response rating, Foxtail, Giant [7] | Kochia plant response rating (kochia (Bassia scoparia)) | Plant response rating, Kochia (kochia (Bassia scoparia)) | Plant response rating, Rice (0 to 100 scale, 0 is no effect, 100 is complete control) (rice (Oryza sativa)) |
| --- | --- | --- | --- | --- | --- | --- | --- | --- | --- | --- | --- | --- | --- | --- | --- | --- |
| Cc1c(NS(=O)(=O)C(F)(F)F)cc(C(=O)N2CCC(C)CC2)c(C)c1C [Compound 366] | 100 | 100 | 10 | 30 | 30 | 70 | 0 | 20 | 10 | 20 | 15 | 30 | 80 | 0 | 30 | 10 |
| COC1CCN(C(=O)c2cc(NS(=O)(=O)C(F)(F)F)c(C)c(C)c2C)CC1 [Compound 367] | 90 | 100 | 20 | 30 | 20 | 90 | 0 | 20 | 40 | 40 | 60 | 10 | 90 | 20 | 30 | 15 |
| C#CCN(C)C(=O)c1cc(NS(=O)(=O)C(F)(F)F)c(C)c(C)c1C [Compound 368] | 90 | 100 | 10 | 20 | 50 | 80 | 20 | 60 | 20 | 40 | 70 | 80 | 90 | 60 | 80 | 0 |
| Cc1c(C(=O)N2CCC(C)CC2)cc(N(COC(=O)C(C)(C)C)S(=O)(=O)C(F)(F)F)c(C)c1C [Compound 369] | 0 | 20 | 0 | 20 | 0 | 90 | 0 | 20 | 0 | 40 | 90 | 20 | 90 | 0 | 50 | 20 |
| CCC1CC(c2cc(N(COC(=O)C(C)(C)C)S(=O)(=O)C(F)(F)F)c(C)cc2C)=NO1 (centres unmarked) [Compound 376] | 0 | 30 | 0 | 10 | 0 | 0 | 10 | 40 | 0 | 20 | 95 | 0 | 20 | 0 | 50 | 20 |
